Experiments:
St. aureus = test: Antimicrobial testing, agar dilution method; format: cell-based, Staphylococcus aureus; details: after 10, 20, 40 and 60 min at all dilutions 1:100, 1:200, 1:400, 1:800
Protocol: (§1) The antimicrobial properties of the, 5-bis(4-methoxyphenyl)-1-hexyl-2-phenyl-1H-imidazole was studied by the method of agar dilution. Test solutions of each compound was prepared in concentration of 1% using dimethylformamide as a solvent then they are diluted in physiological solution to obtain the final experimental dilutions 1:100, 1:200, 1:400, 1:800. The effect of these substances are compared with furacillin in a controllable study. The testing microbes used were gram positive bacteria St. aureus, gram negative bacteria E. Coli, Ps. aeruginosa and Candida albicans fungi were taken. The experiments used for this survey were meat-pentonlu agar (EPA) for cultivation of bacteria and Saburo environment for fungi. Each experiment used 1 ml of test solution on each plate 500 min. Add 2 drops of emulsified with microbes feel. All experimental samples were taken from the agar after 10, 20, 40, 60 minutes in the environment on the basis of Patrk planted. Bacteria were cultivated at a temperature of 37° C. for 1 day and the mushroom was kept in a thermostat for […] at a temperature of 28° C. Then the results were checked.

E. Coli = test: Antimicrobial testing, agar dilution method; format: cell-based, Escherichia coli; details: after 10, 20, 40 and 60 min at all dilutions 1:100, 1:200, 1:400, 1:800
Protocol: as §1

Ps. aeruginosa = test: Antimicrobial testing, agar dilution method; format: cell-based, Pseudomonas aeruginosa; details: after 10, 20, 40 and 60 min at all dilutions 1:100, 1:200, 1:400, 1:800
Protocol: as §1

Candida albicans = test: Antimicrobial testing, agar dilution method; format: cell-based; details: after 10, 20, 40 and 60 min at all dilutions 1:100, 1:200, 1:400, 1:800
Protocol: as §1

In the case of CCCCCCn1c(-c2ccccc2)nc(-c2ccc(OC)cc2)c1-c1ccc(OC)cc1 [4,5-bis(4-methoxyphenyl)-1-hexyl-2-phenyl-1H-imidazole], the “inhibition activity (in words)” value (St. aureus) is reported as “higher inhibition activity”, the “inhibition activity (in words)” value (E. Coli) is reported as “higher inhibition activity” and the “inhibition activity (in words)” value (Ps. aeruginosa) is reported as “higher inhibition activity”. The “inhibition activity (in words)” value (Candida albicans) was “higher inhibition activity” and the melting point was 177 to 179 °C.

From patent publication US12012385B1, “4,5-bis(4-methoxyphenyl)-1-hexyl-2-phenyl-1H-imidazole as an antimicrobial compound” (KING FAISAL UNIVERSITY, priority 2023, dated 2024)
